Assay results from ChEMBL document CHEMBL1201862, “PubChem BioAssay data set” (2004).
Values belong to the compound of their own block, whether it stands above or below them. Calls of active or inactive are those of the source.

Assays:
Format in all cases: functional
[1] = biological target: Cyclin-dependent kinase 19 (Homo sapiens, UniProt Q9BWU1); assay: Navigating the Kinome. Panel member name: CDC2L6
[2] = biological target: Serine/threonine-protein kinase pim-1 (Homo sapiens, UniProt P11309)
Serine/threonine-protein kinase pim-1, sequence (P11309 whole entry): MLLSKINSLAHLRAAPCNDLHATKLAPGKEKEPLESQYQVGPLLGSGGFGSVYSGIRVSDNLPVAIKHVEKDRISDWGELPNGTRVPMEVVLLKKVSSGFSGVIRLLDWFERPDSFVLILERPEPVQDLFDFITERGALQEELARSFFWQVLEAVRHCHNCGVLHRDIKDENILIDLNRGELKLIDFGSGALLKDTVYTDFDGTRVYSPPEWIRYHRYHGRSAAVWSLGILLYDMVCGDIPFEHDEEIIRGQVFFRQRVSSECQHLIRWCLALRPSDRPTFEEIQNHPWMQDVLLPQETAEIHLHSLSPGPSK

[3] = biological target: Dual specificity protein kinase CLK4 (Homo sapiens, UniProt Q9HAZ1)
Dual specificity protein kinase CLK4, sequence (Q9HAZ1 whole entry): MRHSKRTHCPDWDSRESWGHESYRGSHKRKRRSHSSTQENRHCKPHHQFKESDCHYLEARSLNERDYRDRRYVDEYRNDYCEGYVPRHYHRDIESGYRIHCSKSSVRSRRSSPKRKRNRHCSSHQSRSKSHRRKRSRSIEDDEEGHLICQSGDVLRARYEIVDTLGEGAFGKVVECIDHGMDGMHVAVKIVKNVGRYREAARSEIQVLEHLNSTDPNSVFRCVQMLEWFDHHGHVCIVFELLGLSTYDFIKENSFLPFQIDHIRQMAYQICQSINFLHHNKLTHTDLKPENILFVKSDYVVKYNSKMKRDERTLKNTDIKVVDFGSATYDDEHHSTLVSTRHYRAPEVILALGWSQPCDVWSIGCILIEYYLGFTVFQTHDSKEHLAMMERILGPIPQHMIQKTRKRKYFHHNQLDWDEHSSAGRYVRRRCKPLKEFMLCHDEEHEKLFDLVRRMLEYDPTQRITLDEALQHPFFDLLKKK

[4] = biological target: Protein disulfide-isomerase (Homo sapiens, UniProt P07237); assay: inhibition of PDI-driven insulin aggregation – biochemical, turbidity, absorbance, cherry-picked samples, dose response (AID 602350)
[5] = biological target: Cyclin-dependent kinase 5 (Homo sapiens, UniProt Q00535);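 note: CDK5 measured as one member of a kinase profiling panel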
[6] = biological target: Platelet-derived growth factor receptor alpha (Homo sapiens, UniProt P16234); assay: Navigating the Kinome. Panel member name: PDGFRA
[7] = biological target: Tyrosine-protein kinase receptor TYRO3 (Homo sapiens, UniProt Q06418);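 note: TYRO3 value obtained as one member of a kinome-wide profiling panel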
Tyrosine-protein kinase receptor TYRO3, sequence (Q06418 whole entry): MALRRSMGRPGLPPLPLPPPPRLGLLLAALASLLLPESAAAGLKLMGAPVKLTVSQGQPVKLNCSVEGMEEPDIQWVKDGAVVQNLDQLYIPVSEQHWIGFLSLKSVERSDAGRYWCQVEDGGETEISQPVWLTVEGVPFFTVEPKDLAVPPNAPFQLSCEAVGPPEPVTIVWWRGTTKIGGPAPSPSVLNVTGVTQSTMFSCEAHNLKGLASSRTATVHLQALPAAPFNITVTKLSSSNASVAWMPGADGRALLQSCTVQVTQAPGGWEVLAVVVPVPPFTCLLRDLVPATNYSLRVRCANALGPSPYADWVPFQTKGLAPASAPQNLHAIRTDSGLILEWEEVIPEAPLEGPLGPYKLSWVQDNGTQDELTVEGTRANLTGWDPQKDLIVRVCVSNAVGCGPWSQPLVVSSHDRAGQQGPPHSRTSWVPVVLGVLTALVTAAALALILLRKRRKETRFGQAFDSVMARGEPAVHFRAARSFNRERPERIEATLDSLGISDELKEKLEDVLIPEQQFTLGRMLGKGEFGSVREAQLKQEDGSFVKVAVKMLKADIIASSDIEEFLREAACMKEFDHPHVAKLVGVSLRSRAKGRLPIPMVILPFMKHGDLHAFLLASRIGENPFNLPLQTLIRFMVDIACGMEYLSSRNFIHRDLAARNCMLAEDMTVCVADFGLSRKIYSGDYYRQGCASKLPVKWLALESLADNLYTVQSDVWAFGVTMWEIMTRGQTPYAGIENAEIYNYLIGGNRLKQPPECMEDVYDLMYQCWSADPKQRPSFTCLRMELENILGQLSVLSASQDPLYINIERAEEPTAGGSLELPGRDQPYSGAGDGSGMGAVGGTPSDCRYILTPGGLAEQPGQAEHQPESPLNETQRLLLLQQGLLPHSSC

[8] = biological target: Glycogen synthase kinase-3 alpha (Homo sapiens, UniProt P49840);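 note: GSK3A result taken from a broad kinome-wide kinase panel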
[9] = biological target: Glycogen synthase kinase-3 beta (Homo sapiens, UniProt P49841);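 note: value comes from a broad kinome profiling panel, with GSK3B as the panel member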
Glycogen synthase kinase-3 beta, sequence (P49841 whole entry): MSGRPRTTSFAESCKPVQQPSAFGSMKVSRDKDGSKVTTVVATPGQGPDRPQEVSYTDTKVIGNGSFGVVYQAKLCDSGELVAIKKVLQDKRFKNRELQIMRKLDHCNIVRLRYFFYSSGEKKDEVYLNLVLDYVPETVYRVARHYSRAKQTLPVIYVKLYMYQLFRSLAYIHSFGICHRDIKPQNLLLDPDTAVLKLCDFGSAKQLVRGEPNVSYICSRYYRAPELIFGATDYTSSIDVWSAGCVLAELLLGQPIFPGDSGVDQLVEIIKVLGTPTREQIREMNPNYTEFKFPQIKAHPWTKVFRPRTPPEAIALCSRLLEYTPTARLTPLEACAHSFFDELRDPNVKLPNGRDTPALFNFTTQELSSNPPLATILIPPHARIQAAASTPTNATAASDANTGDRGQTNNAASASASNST

[10] = biological target: Dual specificity tyrosine-phosphorylation-regulated kinase 1A (Homo sapiens, UniProt Q13627);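 note: measured against DYRK1A as one member of a broad kinome profiling panel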
Aurora kinase B = Aurora kinase B (Homo sapiens, UniProt Q96GD4)
[11] = biological target: MAP kinase-interacting serine/threonine-protein kinase 2 (Homo sapiens, UniProt Q9HBH9)
[12] = biological target: Homeodomain-interacting protein kinase 2 (Homo sapiens, UniProt Q9H2X6);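 note: measured within a kinome-wide kinase profiling panel, HIPK2 being one panel member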
Homeodomain-interacting protein kinase 2, sequence (Q9H2X6 whole entry): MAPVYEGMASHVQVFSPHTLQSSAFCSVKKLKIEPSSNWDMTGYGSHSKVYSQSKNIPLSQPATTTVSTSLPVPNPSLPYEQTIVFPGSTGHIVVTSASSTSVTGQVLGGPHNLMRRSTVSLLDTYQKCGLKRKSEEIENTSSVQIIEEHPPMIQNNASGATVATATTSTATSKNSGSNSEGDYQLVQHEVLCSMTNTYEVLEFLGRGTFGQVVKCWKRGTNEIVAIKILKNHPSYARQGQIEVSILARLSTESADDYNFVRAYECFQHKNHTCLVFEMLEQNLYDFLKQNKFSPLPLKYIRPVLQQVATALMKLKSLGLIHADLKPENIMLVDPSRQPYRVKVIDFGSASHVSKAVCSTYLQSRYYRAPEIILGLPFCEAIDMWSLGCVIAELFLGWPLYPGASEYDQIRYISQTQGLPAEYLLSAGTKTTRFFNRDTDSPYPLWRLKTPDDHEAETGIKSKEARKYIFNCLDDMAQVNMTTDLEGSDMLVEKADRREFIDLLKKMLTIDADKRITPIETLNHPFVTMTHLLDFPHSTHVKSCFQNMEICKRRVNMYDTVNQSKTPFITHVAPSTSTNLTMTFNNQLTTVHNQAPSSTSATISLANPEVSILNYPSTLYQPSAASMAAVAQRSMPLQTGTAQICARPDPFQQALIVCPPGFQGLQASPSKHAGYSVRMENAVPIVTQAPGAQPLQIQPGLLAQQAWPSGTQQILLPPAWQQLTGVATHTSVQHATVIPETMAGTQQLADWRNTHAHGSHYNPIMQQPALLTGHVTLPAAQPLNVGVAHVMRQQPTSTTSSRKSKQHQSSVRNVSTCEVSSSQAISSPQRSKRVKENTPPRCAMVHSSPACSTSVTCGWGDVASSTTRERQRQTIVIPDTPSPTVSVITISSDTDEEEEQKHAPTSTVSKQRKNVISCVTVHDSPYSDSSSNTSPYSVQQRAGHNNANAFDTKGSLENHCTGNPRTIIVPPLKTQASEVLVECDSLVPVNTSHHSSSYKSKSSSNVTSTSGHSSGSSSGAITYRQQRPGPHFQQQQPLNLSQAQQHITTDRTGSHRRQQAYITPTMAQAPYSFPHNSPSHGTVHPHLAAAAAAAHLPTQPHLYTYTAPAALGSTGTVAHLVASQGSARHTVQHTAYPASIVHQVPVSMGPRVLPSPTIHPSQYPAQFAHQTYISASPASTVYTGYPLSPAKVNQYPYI

Aurora kinase A = Aurora kinase A (Homo sapiens, UniProt O14965);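 note: value from the Navigating the Kinome kinase panel profiling, panel entry STK6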
Aurora kinase A, sequence (O14965 whole entry): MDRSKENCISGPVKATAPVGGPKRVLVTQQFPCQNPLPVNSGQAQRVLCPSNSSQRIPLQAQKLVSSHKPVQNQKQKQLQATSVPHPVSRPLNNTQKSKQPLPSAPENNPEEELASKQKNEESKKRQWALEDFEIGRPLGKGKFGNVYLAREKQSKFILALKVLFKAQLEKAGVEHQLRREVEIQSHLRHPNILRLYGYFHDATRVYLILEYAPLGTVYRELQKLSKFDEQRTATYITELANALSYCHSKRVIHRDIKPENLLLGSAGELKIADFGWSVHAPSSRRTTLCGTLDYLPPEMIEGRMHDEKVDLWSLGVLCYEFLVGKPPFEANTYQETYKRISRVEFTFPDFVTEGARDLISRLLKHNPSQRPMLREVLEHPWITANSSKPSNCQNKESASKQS

[13] = biological target: T1, Interleukin-1 receptor-associated kinase 4 (Homo sapiens, UniProt Q9NWZ3)
T1 sequence (Q9NWZ3 whole entry): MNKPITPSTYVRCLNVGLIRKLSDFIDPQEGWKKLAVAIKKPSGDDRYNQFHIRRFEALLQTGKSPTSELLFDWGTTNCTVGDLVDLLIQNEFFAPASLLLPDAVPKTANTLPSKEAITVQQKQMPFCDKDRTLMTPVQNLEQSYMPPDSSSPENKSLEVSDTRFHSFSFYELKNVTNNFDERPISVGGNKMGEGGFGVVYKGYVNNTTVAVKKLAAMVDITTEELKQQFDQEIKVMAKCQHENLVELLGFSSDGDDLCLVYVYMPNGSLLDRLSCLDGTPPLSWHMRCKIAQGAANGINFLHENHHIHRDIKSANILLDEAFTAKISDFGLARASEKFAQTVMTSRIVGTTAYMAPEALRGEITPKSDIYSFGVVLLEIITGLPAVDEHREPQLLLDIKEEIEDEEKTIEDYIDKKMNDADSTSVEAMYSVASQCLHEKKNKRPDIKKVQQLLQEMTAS

[14] = biological target: cAMP-dependent protein kinase catalytic subunit alpha (Homo sapiens, UniProt P17612)
[15] = biological target: Mitogen-activated protein kinase kinase kinase kinase 4 (Homo sapiens, UniProt O95819)
[16] = biological target: High affinity nerve growth factor receptor (Homo sapiens, UniProt P04629);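 note: NTRK1 tested as one member of a kinome-wide profiling panel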
[17] = biological target: Inhibitor of nuclear factor kappa-B kinase subunit epsilon (Homo sapiens, UniProt Q14164); assay: Navigating the Kinome. Panel member name: IKBKE
Inhibitor of nuclear factor kappa-B kinase subunit epsilon, sequence (Q14164 whole entry): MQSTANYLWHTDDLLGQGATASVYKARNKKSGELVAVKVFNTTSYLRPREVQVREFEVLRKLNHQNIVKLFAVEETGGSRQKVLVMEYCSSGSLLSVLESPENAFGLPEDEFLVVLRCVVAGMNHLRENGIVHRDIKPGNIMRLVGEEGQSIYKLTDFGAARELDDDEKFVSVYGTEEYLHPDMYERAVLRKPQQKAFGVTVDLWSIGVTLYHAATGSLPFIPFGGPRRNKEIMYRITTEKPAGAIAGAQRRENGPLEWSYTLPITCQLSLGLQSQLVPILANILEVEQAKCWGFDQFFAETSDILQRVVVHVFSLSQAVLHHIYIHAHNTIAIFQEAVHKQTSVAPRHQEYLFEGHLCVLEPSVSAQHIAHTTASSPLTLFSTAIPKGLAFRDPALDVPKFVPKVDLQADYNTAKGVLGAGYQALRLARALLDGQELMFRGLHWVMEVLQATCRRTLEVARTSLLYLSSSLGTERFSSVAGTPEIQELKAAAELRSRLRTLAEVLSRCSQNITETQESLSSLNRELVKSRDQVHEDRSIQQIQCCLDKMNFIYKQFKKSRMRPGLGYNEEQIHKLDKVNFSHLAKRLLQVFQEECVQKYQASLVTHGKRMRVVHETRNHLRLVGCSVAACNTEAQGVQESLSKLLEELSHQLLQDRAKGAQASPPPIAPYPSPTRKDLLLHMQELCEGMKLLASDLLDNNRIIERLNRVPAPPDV

Cyclin-dependent kinase 19, sequence (Q9BWU1 whole entry): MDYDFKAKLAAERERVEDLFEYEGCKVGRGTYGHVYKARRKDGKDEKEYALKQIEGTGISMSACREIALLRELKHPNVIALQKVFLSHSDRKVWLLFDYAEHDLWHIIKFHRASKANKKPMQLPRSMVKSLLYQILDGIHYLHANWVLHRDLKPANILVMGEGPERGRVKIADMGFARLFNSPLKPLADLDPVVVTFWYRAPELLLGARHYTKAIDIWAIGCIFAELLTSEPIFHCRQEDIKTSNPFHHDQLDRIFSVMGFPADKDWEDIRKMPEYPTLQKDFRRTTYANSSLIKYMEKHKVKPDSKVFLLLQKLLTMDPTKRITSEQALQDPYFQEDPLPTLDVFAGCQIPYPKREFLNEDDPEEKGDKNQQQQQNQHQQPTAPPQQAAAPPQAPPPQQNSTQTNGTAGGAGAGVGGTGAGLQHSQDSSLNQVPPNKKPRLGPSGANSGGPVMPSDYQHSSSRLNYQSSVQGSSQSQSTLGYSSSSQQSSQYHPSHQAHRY

Compound: CC(=O)n1nc(N)c2ccc(Br)cc21
Ki [5]: 1.58 µM (active) | Ki [6]: 2.51 µM (active) | Ki [7]: 2.51 µM (active)

Compound: COc1nc(N)c(C#N)c(-c2ccc(Cl)cc2Cl)c1C#N
Ki [8]: 2.51 µM (active) | Ki [9]: 2.51 µM (active) | Ki [10]: 5.01 µM (active) | Ki [3]: 7.94 µM (active)

More lines, now with the values ahead:

Ki [1]: > 100 µM (inactive) | Ki [2]: 2.51 µM (active) | Ki [3]: 3.98 µM (active)
Compound: O=C1CC(c2ccccc2)Cc2[nH]c3cc(Cl)ccc3c(=O)c21 (stereo not drawn)

AC50 [4]: 18.8 µM (active)
Compound: C[C@@H]1CN([C@H](C)CO)C(=O)c2cccc(NS(C)(=O)=O)c2O[C@H]1CN(C)Cc1ccc(Oc2ccccc2)cc1

Ki (Aurora kinase B): 0.00501 µM (active) | Ki [11]: 0.251 µM (active) | Ki [12]: 0.00631 µM (active) | Ki [2]: 0.158 µM (active) | Ki [9]: 0.00316 µM (active) | Ki (Aurora kinase A): 0.0158 µM (active) | Ki [13]: 3.98 µM (active) | Ki [3]: 0.0794 µM (active) | Ki [14]: > 7.94 µM (inactive) | Ki [15]: 0.2 µM (active)
Compound: Cc1ccc(Nc2nccc(Nc3ccccc3C(=O)O)n2)cc1F

Ki [16]: 0.126 µM (active) | Ki [17]: 3.16 µM (active)
Compound: Nc1ncnc2c1N=C(c1ccc(NC(=O)Nc3ccc(F)c(C(F)(F)F)c3)cc1)CCN2
